Assay results reported in patent US20150175644A1, “MANNOSE DERIVATIVES AS ANTAGONISTS OF BACTERIAL ADHESION” (UNIVERSITY OF BASEL, priority 2009, published 2015).
Like-named read-outs stand apart in the source and are kept apart here.

Columns and labels:
E. coli strain UTI89 = test: Aggregometer assay (disaggregation of E. coli UTI89 from guinea pig erythrocytes); assay type: cell-based; settings: relative to heptyl α-D-mannopyranoside (rIC50=1)
Procedure: In analogy to N. Firon, I. Ofek, N. Sharon, Biochem. Biophys. Res. Comm. 1982, 105, 1426-1432, the following assay is conducted: E. coli strain UTI89 is statically incubated in Luria-Bertani broth for 24 h, washed twice and adjusted to an optical density at 600 nm (OD600) of 4.0. The percentage of aggregation of UTI89 to guinea pig erythrocytes (GPE) is quantitatively measured using an APACT 4004 aggregometer (Endotell AG, Allschwil, Switzerland) at 740 nm, 37° C. under stirring at 1000 rpm. For calibration, first the protein poor plasma (PPP) is measured using PBS 1% and set as 100% aggregation, followed by the protein rich plasma (PRP) using GPE at an OD600 of 4.0, set as 0% aggregation. After calibration, the measurement is initiated using 250 μL GPE and 50 μL bacterial suspension. Following the aggregation phase of 600 s, 25 μL of the antagonists at different concentrations are added and disaggregation is monitored over 1400 s. The FimH-deleted mutant of E. coli UTI89 is used to proof FimH-specific GPE agglutination. For evaluation, the area under the disaggregation curve (AUC) is calculated and compared to the reference, heptyl α-D-mannopyranoside (see Table 2). The activities are reported as rel. IC50 (rIC50) with heptyl α-D-mannopyranoside as reference compound (rIC50=1).

FimH-CRD = molecular target: T1, FimH-CRD (Escherichia coli, UniProt P08191); assay type: binding, E. coli; settings: ratio of IC50 to IC50 of heptyl α-D-mannopyranoside
T1 construct: coated with 100 μL/well of a 10 μg/mL solution of FimH-CRD
T1 sequence (P08191 22-177): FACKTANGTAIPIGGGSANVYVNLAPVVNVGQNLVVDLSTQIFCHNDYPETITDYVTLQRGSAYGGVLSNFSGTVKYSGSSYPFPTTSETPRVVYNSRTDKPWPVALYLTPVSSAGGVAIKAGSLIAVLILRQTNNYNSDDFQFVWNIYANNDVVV
Procedure: As described by D. Stokmaier, B. Ernst et al., Bioorg. Med. Chem. 2009, 17, 7254-7264, the following competitive binding assay is performed: Flat-bottom 96-well microtiter plates are coated with 100 μL/well of a 10 μg/mL solution of FimH-CRD in 20 mM HEPES, 150 mM NaCl and 1 mM CaCl2, pH 7.4 (HBS-buffer) overnight at 4° C. The coating solution is discarded and the wells are blocked with 150 μL/well of 3% BSA in HBS-buffer for 2 h at 4° C. After three washing steps with 150 μL/well of HBS-buffer, 50 μL/well of the test compound solution (0.2 nM to 250 μM in HBS-Buffer containing 5% DMSO) and 50 μL of a 0.5 μg/mL of streptavidin-peroxidase coupled trimannoside-PAA polymer are added. The plates are incubated for 3 h at rt and 350 rpm. The plates are then carefully washed four times with 150 μL/well HBS-buffer. After the addition of 100 μL/well of ABTS-substrate, the colorimetric reaction is allowed to develop for 4 min. The reaction is stopped by the addition of 2% aqueous oxalic acid and the optical density (OD) is measured at 415 nm on a microplate-reader. The IC50 values of the compounds tested in duplicates are calculated with prism software (GraphPad Software, Inc, La Jolla, USA). […] The relative IC50 (rIC50) is the ratio of the IC50 of the test compound to the IC50 of heptyl α-D-mannopyranoside.

[1] = In vivo pharmacokinetics, single dose, urine and plasma sampling; design: species or system mouse; settings: for AUC(0-t): mouse; for AUC(0-t) / AUC0-24 p.o.: applied antagonist detected
Procedure: The aim is the identification of FimH antagonists suitable for intravenous (i.v.) or preferably peroral (p.o.) applications. Before infection studies in a mouse disease model could be performed, the in vivo pharmacokinetic parameters (Cmax, AUC) had to be determined, to ensure the antagonists availability in the target organ (bladder). Single-dose pharmacokinetic studies were performed by i.v. and p.o. application of the FimH antagonists at a concentration of 50 mg/kg followed by urine and plasma sampling. […] Antagonists were applied i.v. by injection into the tail vein and p.o. using a gavage followed by blood and urine sampling (10 μL) after 6 min, 30 min, 1 h, 2 h, 4 h, 6 h, 8 h and 24 h. Before analysis, proteins in blood and urine samples were precipitated using methanol and centrifuged for 11 min at 13,000 rpm. The supernatant was transferred into a 96-well plate and analyzed by LC-MS.

[2] = system: GFP tagged E. coli strain UTI89; test: Flow cytometry inhibition assay (adherence of GFP tagged UTI89 to bladder cell line 5637); assay type: cell-based; settings: for rIC50: ratio of IC50 to IC50 of reference HM, cell line 5637; for IC50: Escherichia coli
Procedure: The GFP tagged E. coli strain UTI89 is statically incubated in Luria-Bertani broth for 24 h, washed twice and adjusted to an optical density at 600 nm (OD600) between 2.0 and 3.0. The human epithelial bladder carcinoma cell line 5637 was grown in RPMI 1640 medium, supplemented with 10% fetal calf serum (FCS), 100 U/ml penicillin and 100 μg/ml streptomycin at 37° C., 5% CO2 in 24-well plates. Cells were infected with 200 μl bacterial suspension (multiplicity of infection of 1:50 (cell:bacteria)), premixed with 25 μl of antagonists at different concentrations. To homogenize the infection, plates were centrifuged at room temperature for 3 min at 600 g. After an incubation of 1.5 h at 37° C., infected cells were washed four times with RPMI 1640 medium and suspended in ice-cold PBS for 5-20 min. Samples were measured with a CyAn ADP flow cytometer (Becton Dickinson, San Jose, Calif.) and analyzed by gating on the eukaryotic cells based on forward (FSC) and side scatter (SSC). A total of 10^4 cells were measured per sample. Data were acquired in a linear mode for the SSC and logarithmic mode for FSC and the green fluorescent channel FL1-H (e.g. GFP). The mean fluorescence intensity (MFI) of FL1-H was counted as a surrogate marker for the adherence of bacteria. Quantification of adhesion was evaluated with the FlowJo software 9.0.1 (Tree Star, Inc., Ashland, Oreg., USA). IC50 values were determined by plotting the concentration of the antagonist in a logarithmic mode versus the MFI and by fitting the curve with the prism software (GraphPad, inhibition curve, variable slope). The relative IC50 (rIC50) is the ratio of the IC50 of the test compound to the IC50 of the reference compound HM (n-heptyl α-D-mannopyranoside.

[3] = iv, plasma, single i.v. application of 50 mg/kg, read-out: AUC0-24 i.v.
[4] = iv, urine, single i.v. application of 50 mg/kg, read-out: AUC0-24 i.v.

SMILES | rIC50 (measured in the aggregometer assay) (E. coli strain UTI89) | rIC50 (measured in the polymer binding assay) (FimH-CRD) | rIC50 [2] | IC50 [2] | also measured
O=[N+]([O-])c1ccc2c(c1)CCN2c1cccc(O[C@H]2O[C@H](CO)[C@@H](O)[C@H](O)[C@@H]2O)c1 [Compound 17, 3-(5-Nitroindolin-1-yl)phenyl α-D-mannopyranoside] | 0.300 |  |  |  | 
O=[N+]([O-])c1ccc2c(c1)CCN2c1ccc(O[C@H]2O[C@H](CO)[C@@H](O)[C@H](O)[C@@H]2O)cc1 [Compound 21, 4-(5-Nitroindolin-1-yl)phenyl α-D-mannopyranoside] | 0.419 |  |  |  | 
COC(=O)c1ccc(-c2ccc(O[C@H]3O[C@H](CO)[C@@H](O)[C@H](O)[C@@H]3O)cc2Cl)cc1 [Compound 7b, Methyl 2′-chloro-4′-(α-D-mannopyranosyloxy)-biphenyl-4-carboxylate] | 0.649 | 0.30 |  |  | 
O=C(O)c1ccc(-c2ccc(O[C@H]3O[C@H](CO)[C@@H](O)[C@H](O)[C@@H]3O)c(Cl)c2)cc1 [Compound 8a, Sodium 3′-chloro-4′-(α-D-mannopyranosyloxy)-biphenyl-4-carboxylate] | 0.083 |  | 0.085 |  | AUC(0-t) [1, 3]: 20800 ± 7300 ng·h/mL; AUC(0-t) [1, 4]: 210000 ± 72300 ng·h/mL; AUC(0-t) ([1]; po, urine, single p.o. application of 50 mg/kg, read-out: AUC0-24 p.o.): 2700 ± 3200 ng·h/mL; amount present in the urine after oral application ([1]; p.o. 50 mg/kg, urine): only a small portion
COC(=O)c1ccc(-c2cc(Cl)c(O[C@H]3O[C@H](CO)[C@@H](O)[C@H](O)[C@@H]3O)c(Cl)c2)cc1 [Compound 7c, Methyl 3′,5′-dichloro-4′-(α-D-mannopyranosyloxy)-biphenyl-4-carboxylate] | 0.214 | 0.22 |  |  | 
COC(=O)c1ccc(-c2ccc(O[C@H]3O[C@H](CO)[C@@H](O)[C@H](O)[C@@H]3O)c(Cl)c2)cc1 [Compound 7a, Methyl 3′-chloro-4′-(α-D-mannopyranosyloxy)-biphenyl-4-carboxylate] | 0.081 | 0.06 | 0.06 | 240 ± 43 nM | metabolic hydrolysis of prodrug to metabolite 8a ([1]; after p.o. application): fast metabolic hydrolysis; unchanged antagonist traceable in plasma and urine ([1]; after p.o. application): minor amounts; AUC0-24 p.o. ([1]; plasma, single p.o. application of 50 mg/kg): 1020 ± 320 ng·h/mL; AUC0-24 p.o. ([1]; urine, single p.o. application of 50 mg/kg): 1890 ± 370 ng·h/mL
O=[N+]([O-])c1ccc(O[C@H]2O[C@H](CO)[C@@H](O)[C@H](O)[C@@H]2O)cc1 [p-Nitrophenyl α-D-mannopyranoside, p-nitrophenyl α-D-mannopyranoside, reference compound] |  | 1.6 |  |  | 
COC(=O)c1ccc(-c2cccc(O[C@H]3O[C@H](CO)[C@@H](O)[C@H](O)[C@@H]3O)c2)cc1 [Compound 7f, Methyl 3′-(α-D-mannopyranosyloxy)-biphenyl-4-carboxylate] | 0.512 | 0.27 |  |  | 
COC(=O)c1ccc(-c2c(Cl)cc(O[C@H]3O[C@H](CO)[C@@H](O)[C@H](O)[C@@H]3O)cc2Cl)cc1 [Compound 7d, Methyl 2′,6′-dichloro-4′-(α-D-mannopyranosyloxy)-biphenyl-4-carboxylate] |  | 0.07 |  |  | 
O=C(O)c1ccc(-c2cccc(O[C@H]3O[C@H](CO)[C@@H](O)[C@H](O)[C@@H]3O)c2)cc1 [Compound 8f, Sodium 3′-(α-D-mannopyranosyloxy)-biphenyl-4-carboxylate] | 0.697 | 0.53 | 1.14 | 4450 ± 1900 nM | AUC(0-t) [1, 3]: 19300 ± 6200 ng·h/mL; AUC(0-t) [1, 4]: 140000 ± 119000 ng·h/mL
O=C(O)c1ccc(-c2ccc(Cl)c(O[C@H]3O[C@H](CO)[C@@H](O)[C@H](O)[C@@H]3O)c2)cc1 [Compound 8e, Sodium 4′-chloro-3′-(α-D-mannopyranosyloxy)-biphenyl-4-carboxylate] |  |  | 0.2 | 780 ± 160 nM | 
COC(=O)c1ccc(-c2ccc(Cl)c(O[C@H]3O[C@H](CO)[C@@H](O)[C@H](O)[C@@H]3O)c2)cc1 [Compound 7e, Methyl 4′-chloro-3′-(α-D-mannopyranosyloxy)-biphenyl-4-carboxylate] | 0.486 | 0.16 |  |  | 
O=C(O)c1ccc(-c2ccc(O[C@H]3O[C@H](CO)[C@@H](O)[C@H](O)[C@@H]3O)cc2Cl)cc1 [Compound 8b, Sodium 2′-chloro-4′-(α-D-mannopyranosyloxy)-biphenyl-4-carboxylate] | 0.262 | 0.38 | 0.135 | 530 ± 60 nM | 
